Source: patent US8822449B2, “Substituted aminoindanes and analogs thereof, and the pharmaceutical use thereof” (Sanofi, priority 2008, dated 2014)

target: T1, sodium-proton exchanger of subtype 3 (NHE3) (Homo sapiens, UniProt P48764); experiment: Recovery of intracellular pH (pHi) after acidification in LAP1 cells stably expressing NHE3 (BCECF fluorescence, FLIPR); assay type: cell-based; settings: LAP1 cells stably expressing NHE3; pH recovery after acidification; range 1 is % inhibition at 10 μM; read-out: Activity range (inhibitory effect on NHE3)
T1 construct: expressed in transfected cells
T1 sequence (P48764 26-834): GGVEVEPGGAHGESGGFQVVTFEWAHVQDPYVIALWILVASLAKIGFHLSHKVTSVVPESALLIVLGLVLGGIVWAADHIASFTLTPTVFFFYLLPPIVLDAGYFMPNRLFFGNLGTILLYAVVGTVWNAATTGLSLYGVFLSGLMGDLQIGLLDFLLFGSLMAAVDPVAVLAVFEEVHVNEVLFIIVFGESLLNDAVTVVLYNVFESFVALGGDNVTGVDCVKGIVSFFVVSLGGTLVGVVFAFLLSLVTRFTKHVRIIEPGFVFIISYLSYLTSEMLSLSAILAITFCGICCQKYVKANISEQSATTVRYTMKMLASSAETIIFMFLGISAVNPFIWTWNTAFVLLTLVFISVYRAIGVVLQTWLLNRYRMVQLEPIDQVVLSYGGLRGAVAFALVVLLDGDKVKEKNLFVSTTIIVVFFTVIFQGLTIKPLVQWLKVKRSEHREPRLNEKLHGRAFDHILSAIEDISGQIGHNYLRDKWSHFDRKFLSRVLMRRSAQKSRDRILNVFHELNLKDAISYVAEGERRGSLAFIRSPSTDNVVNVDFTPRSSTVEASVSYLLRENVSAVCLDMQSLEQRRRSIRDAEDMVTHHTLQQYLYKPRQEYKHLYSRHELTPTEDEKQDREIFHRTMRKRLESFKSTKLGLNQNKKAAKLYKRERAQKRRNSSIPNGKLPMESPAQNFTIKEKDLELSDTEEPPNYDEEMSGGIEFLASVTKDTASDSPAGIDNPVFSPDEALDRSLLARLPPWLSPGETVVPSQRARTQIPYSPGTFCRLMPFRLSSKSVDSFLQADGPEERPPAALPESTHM

Structure (SMILES) | IC50 | inhibition at 10 µM
CCc1ccc(O[C@@H]2c3ccccc3C[C@H]2N2CCC[C@@H](N)C2)c(C(C)(C)C)c1 (racemic) [Example 49, (R)-1-[rac-trans-(1,2)-1-(2-tert-butyl-4-ethylphenoxy)indan-2-yl]piperidin-3-ylamine] | 1000 to 10000 nM | –
CN1CCN([C@H]2Cc3c(Cl)cc(Cl)cc3[C@@H]2Oc2ccc(-n3cncn3)cc2)CC1 [Example 296, 1-[trans-(1S,2S)-4,6-dichloro-1-(4-[1,2,4]triazol-1-ylphenoxy)indan-2-yl]-4-methylpiperazine] | – | 20 to 50%
Cc1cc(-n2c(C)nnc2C)ccc1O[C@H]1c2cc(Cl)cc(Cl)c2C[C@@H]1N1CC[C@@H](O)C1 [Example 131, (R)-1-{trans-(1S,2S)-4,6-dichloro-1-[4-(3,5-dimethyl-[1,2,4]triazol-4-yl)-2-methylphenoxy]indan-2-yl}pyrrolidin-3-ol] | < 1000 nM | –
COc1ccc(O[C@H]2c3ccccc3CC[C@@H]2N2CCC[C@@H](N)C2)c(F)c1 (racemic) [Example 42, (R)-1-[rac-trans-(1,2)-1-(2-fluoro-4-methoxyphenoxy)-1,2,3,4-tetrahydronaphthalen-2-yl]piperidin-3-ylamine] | – | 20 to 50%
N#Cc1ccc(CO[C@H]2c3cc(Cl)cc(Cl)c3C[C@@H]2N2CC[C@@H](O)C2)c(F)c1 [Example 482, 4-[(1S,2S)-4,6-dichloro-2-((R)-3-hydroxypyrrolidin-1-yl)indan-1-yloxymethyl]-3-fluorobenzonitrile] | – | 20 to 50%
NC(=O)Nc1cccc(O[C@@H]2c3ccccc3C[C@H]2N2CCC[C@H](N)C2)c1 (racemic) [Example 232, {3-[rac-trans-(1,2)-2-((S)-3-aminopiperidin-1-yl)indan-1-yloxy]phenyl}urea] | 1000 to 10000 nM | –
CN1CCN(c2cccc(O[C@H]3c4cc(Cl)cc(F)c4C[C@@H]3N3CC[C@@H](O)C3)c2)C1=O [Example 320, 1-{3-[trans-(1S,2S)-6-chloro-4-fluoro-2-((R)-3-hydroxypyrrolidin-1-yl)indan-1-yloxy]phenyl}-3-methylimidazolidin-2-one] | 1000 to 10000 nM | –
FC(F)(F)CCN[C@@H]1CCCN([C@H]2Cc3c(Cl)cc(Cl)cc3[C@@H]2Oc2ccc(-n3cncn3)cc2)C1 [Example 221, {(R)-1-[trans-(1S,2S)-4,6-dichloro-1-(4-[1,2,4]triazol-1-ylphenoxy)indan-2-yl]piperidin-3-yl}-(3,3,3-trifluoropropyl)amine] | < 1000 nM | –
Cc1ccc(O[C@H]2c3ccccc3CC[C@@H]2N2CCC[C@H](N)C2)cc1Cl (racemic) [Example 161, (S)-1-[rac-trans-(1,2)-1-(3-chloro-4-methylphenoxy)-1,2,3,4-tetrahydronaphthalen-2-yl]piperidin-3-ylamine] | – | 20 to 50%
O=C1OCCN1c1ccc(Cl)c(O[C@H]2c3cc(Cl)cc(Cl)c3C[C@@H]2N2CC[C@@H](O)C2)c1 [Example 434, 3-{4-chloro-3-[(1S,2S)-4,6-dichloro-2-((R)-3-hydroxypyrrolidin-1-yl)indan-1-yloxy]phenyl}oxazolidin-2-one] | < 1000 nM | –
CN(C)S(=O)(=O)c1ccc(N[C@H]2c3cc(Cl)cc(Cl)c3C[C@@H]2N2CC[C@@H](O)C2)cc1 [Example 481, 4-[(1S,2S)-4,6-dichloro-2-((R)-3-hydroxypyrrolidin-1-yl)indan-1-ylamino]-N,N-dimethylbenzenesulfonamide] | 1000 to 10000 nM | –
CS(=O)(=O)c1ccc(O[C@H]2c3c(Cl)cc(Cl)cc3C[C@@H]2N2CCNCC2)cc1 (racemic) [Example 287, 1-[rac-trans-(1,2)-5,7-dichloro-1-(4-methanesulfonylphenoxy)indan-2-yl]piperazine] | < 1000 nM | –

The remaining lines, values ahead:

IC50 | inhibition at 10 µM | Structure (SMILES)
1000 to 10000 nM | – | Cc1nc2cc(O[C@H]3c4cc(Cl)cc(Cl)c4C[C@@H]3N3CCNCC3)ccc2s1 (racemic) [Example 572, 5-(rac-trans-(1,2)-4,6-dichloro-2-piperazin-1-ylindan-1-yloxy)-2-methylbenzothiazole]
< 1000 nM | – | CS(=O)(=O)c1nccn1-c1ccc(O[C@H]2c3cc(Cl)cc(Cl)c3C[C@@H]2N2CC[C@@H](O)C2)c(F)c1 [Example 739, (R)-1-{trans-(1S,2S)-4,6-Dichloro-1-[2-fluoro-4-(2-methanesulfonyl-imidazol-1-yl)-phenoxy]-indan-2-yl}-pyrrolidin-3-ol]
1000 to 10000 nM | – | CN(c1ccc(F)c(O[C@H]2c3cc(Cl)cc(F)c3C[C@@H]2N2CC[C@@H](O)C2)c1)S(C)(=O)=O [Example 673, N-{3-[(1S,2S)-6-chloro-4-fluoro-2-((R)-3-hydroxypyrrolidin-1-yl)indan-1-yloxy]-4-fluorophenyl}-N-methyl-methanesulfonamide]
< 1000 nM | – | CC(=O)Nc1cccc(OC2c3ccccc3CC2N2CCCC2)c1 (racemic) [Example 641, N-[3-(rac-trans-(1,2)-2-pyrrolidin-1-ylindan-1-yloxy)phenyl]acetamide]
– | 20 to 50% | CS(=O)(=O)c1ccc(O[C@H]2c3ccccc3C[C@@H]2N2CCn3cnnc3C2)cc1 (racemic) [Example 590, 7-[rac-trans-(1,2)-1-(4-methanesulfonylphenoxy)indan-2-yl]-5,6,7,8-tetrahydro-[1,2,4]triazolo[4,3-a]pyrazine]
– | 20 to 50% | CC(=O)Nc1cccc(O[C@H]2c3ccccc3CC[C@@H]2N2CCC[C@H](N)C2)c1 (racemic) [Example 684, N-{3-[rac-trans-(1,2)-2-((S)-3-aminopiperidin-1-yl)-1,2,3,4-tetrahydronaphthalen-1-yloxy]phenyl}acetamide]
– | 20 to 50% | N[C@@H]1CCCN([C@H]2CCc3ccccc3[C@@H]2Oc2ccc3oc(=O)sc3c2)C1 (racemic) [Example 578, 5-[rac-trans-(1,2)-2-((R)-3-aminopiperidin-1-yl)-1,2,3,4-tetrahydronaphthalen-1-yloxy]benzo[1,3]oxathiol-2-one]
1000 to 10000 nM | – | NCC1CCN([C@@H]2Cc3ccccc3[C@H]2Oc2ccc(Br)cc2-c2cc[nH]n2)CC1 (racemic) [Example 599, C-(1-{rac-trans-(1,2)-1-[4-bromo-2-(1H-pyrazol-3-yl)phenoxy]indan-2-yl}piperidin-4-yl)methylamine]
1000 to 10000 nM | – | CCn1cnn(-c2ccc(O[C@H]3c4cc(Cl)cc(Cl)c4C[C@@H]3N3CC[C@@H](O)C3)cc2)c1=O [Example 736, 2-{4-[trans-(1S,2S)-4,6-Dichloro-2-((R)-3-hydroxy-pyrrolidin-1-yl)-indan-1-yloxy]-phenyl}-4-ethyl-2,4-dihydro-[1,2,4]triazol-3-one]
– | 20 to 50% | CS(=O)(=O)c1ccccc1O[C@H]1c2ccccc2CC[C@@H]1N1CCOCC1 (racemic) [Example 506, 4-[rac-trans-(1,2)-1-(2-methanesulfonylphenoxy)-1,2,3,4-tetrahydronaphthalen-2-yl]morpholine]
1000 to 10000 nM | – | O=S(=O)(c1ccc(O[C@H]2c3cc(Cl)cc(Cl)c3C[C@@H]2N2CC[C@@H](O)C2)cc1)N1CCOCC1 [Example 744, (R)-1-{trans-(1S,2S)-4,6-Dichloro-1-[4-(morpholine-4-sulfonyl)-phenoxy]-indan-2-yl}-pyrrolidin-3-ol]
– | 20 to 50% | N#Cc1ccc(O[C@H]2c3ccccc3CC[C@@H]2N2CCC[C@H](N)C2)cc1Cl (racemic) [Example 529, 4-[rac-trans-(1,2)-2-((S)-3-aminopiperidin-1-yl)-1,2,3,4-tetrahydronaphthalen-1-yloxy]-2-chlorobenzonitrile]
< 1000 nM | – | NS(=O)(=O)c1ccc(O[C@@H]2c3ccccc3C[C@H]2NCC2CCC2)c(F)c1 (racemic) [Example 718, 4-[rac-trans-(1,2)-2-(Cyclobutylmethyl-amino)-indan-1-yloxy]-3-fluoro-benzenesulfonamide]
< 1000 nM | – | CCc1nnc(C(C)C)n1-c1ccc(O[C@H]2c3cc(Cl)cc(Cl)c3C[C@@H]2N2CC[C@@H](O)C2)cc1 [Example 716, (R)-1-{trans-(1S,2S)-4,6-Dichloro-1-[4-(3-ethyl-5-isopropyl-[1,2,4]triazol-4-yl)-phenoxy]-indan-2-yl}-pyrrolidin-3-ol]
1000 to 10000 nM | – | CC(=O)Nc1cccc(O[C@H]2c3cc(Cl)cc(Cl)c3C[C@@H]2N2CCNCC2)c1 (racemic) [Example 647, N-[3-(rac-trans-(1,2)-4,6-dichloro-2-piperazin-1-ylindan-1-yloxy)phenyl]acetamide]
< 1000 nM | – | Cc1nnc(C)n1-c1ccc(O[C@H]2c3cc(Cl)cc(Cl)c3C[C@@H]2N2CCS(=O)(=O)CC2)c(F)c1 [Example 565, 4-{trans-(1S,2S)-4,6-dichloro-1-[4-(3,5-dimethyl-[1,2,4]triazol-4-yl)-2-fluorophenoxy]indan-2-yl}thiomorpholine 1,1-dioxide]
1000 to 10000 nM | – | N#Cc1ccc(O[C@@H]2c3ccccc3C[C@H]2N2CCC(CN)CC2)c(Cl)c1 (racemic) [Example 547, 4-[rac-trans-(1,2)-2-(4-aminomethylpiperidin-1-yl)indan-1-yloxy]-3-chlorobenzonitrile]
